The target in the assay is mushroom tyrosinase (Agaricus bisporus, UniProt C7FF04). As to the kind of experiment: Kinetic analysis of tyrosinase inhibition. The settings on record: L-DOPA 0.5 to 3 mM.

Entries after “also recorded” stand apart in the source; their conditions may differ.

mushroom tyrosinase, sequence (C7FF04 1-392): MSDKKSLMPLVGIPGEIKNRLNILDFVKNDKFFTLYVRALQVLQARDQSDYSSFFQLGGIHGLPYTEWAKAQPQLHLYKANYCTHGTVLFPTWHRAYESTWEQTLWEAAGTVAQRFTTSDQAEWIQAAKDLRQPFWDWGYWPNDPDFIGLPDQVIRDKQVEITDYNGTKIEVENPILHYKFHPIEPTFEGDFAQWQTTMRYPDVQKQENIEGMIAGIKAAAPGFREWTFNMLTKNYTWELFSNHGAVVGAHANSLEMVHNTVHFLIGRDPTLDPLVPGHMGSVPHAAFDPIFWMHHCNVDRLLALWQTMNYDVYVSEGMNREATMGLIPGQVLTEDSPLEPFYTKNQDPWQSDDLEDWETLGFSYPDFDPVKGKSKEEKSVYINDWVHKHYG

For `Nc1ccc(-c2cc(-c3ccc(-c4cc(-c5ccc(N)cc5)nc(N)n4)cc3)nc(N)n2)cc1` [Compound 6P, 6,6′-(1,4-phenylene)bis[4-(4-aminophenyl)pyrimidin-2-amine]], the “Type of tyrosinase inhibition (Lineweaver-Burk plots)” value is listed as “mixed-type inhibitor; also recorded: mixed-type inhibition”.

For the origin of these results see PMC11258615 (RSC Advances, 2024).
